Measurements reported in PubChem BioAssay (NCI).
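Cultured in 96-well plates, cells were exposed to test compound for 48 hours across five concentrations. The concentration for 50% growth inhibition is given as GI50. TGI: total growth inhibition.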

Key:
Assay in all cases: DTP human tumour cell line panel, 48 h
[1] = test system: SR leukemia
[2] = test system: SF-539 CNS
[3] = test system: HS 578T breast
[4] = test system: UACC-62 melanoma
[5] = test system: HT29 colon
[6] = test system: U251 CNS
[7] = test system: OVCAR-3 ovarian
[8] = test system: PC-3 prostate
[9] = test system: HL-60(TB) leukemia
[10] = test system: OVCAR-5 ovarian
[11] = test system: SK-MEL-5 melanoma
[12] = test system: SK-OV-3 ovarian
[13] = test system: TK-10 renal
[14] = test system: BT-549 breast
[15] = test system: K-562 leukemia
[16] = test system: IGROV1 ovarian
[17] = test system: RXF 393 renal
[18] = test system: NCI-H226 lung
[19] = test system: A498 renal
[20] = test system: HCT-15 colon
[21] = test system: MALME-3M melanoma
[22] = test system: M14 melanoma
[23] = test system: MDA-MB-231 breast
[24] = test system: DU-145 prostate
[25] = test system: NCI-H23 lung
[26] = test system: ACHN renal
[27] = test system: OVCAR-8 ovarian
[28] = test system: HOP-62 NSCLC
[29] = test system: HCT-116 colon
[30] = test system: COLO 205 colon
[31] = test system: MDA-MB-435
[32] = test system: MCF7 breast
[33] = test system: SK-MEL-28 melanoma
[34] = test system: KM12 colon
[35] = test system: UO-31 renal
[36] = test system: NCI-H460 lung
[37] = test system: SF-295 CNS
[38] = test system: HCC-2998 colon
[39] = test system: CCRF-CEM leukemia
[40] = test system: 786-0 renal
[41] = test system: SF-268 CNS
[42] = test system: SN12C renal
[43] = test system: UACC-257 melanoma
[44] = test system: SNB-19 CNS
[45] = test system: A549 NSCLC
[46] = test system: SNB-75 CNS
[47] = test system: MOLT-4 leukemia
[48] = test system: SK-MEL-2 melanoma
[49] = test system: CAKI-1 renal
[50] = test system: SW-620 colon
[51] = test system: NCI/ADR-RES ovarian
[52] = test system: EKVX NSCLC
[53] = test system: LOX IMVI melanoma
[54] = test system: OVCAR-4 ovarian
[55] = test system: T-47D breast
[56] = test system: NCI-H522 lung
[57] = test system: RPMI-8226 leukemia
[58] = test system: HOP-92 NSCLC

For `O=C(c1ccco1)c1c(C(F)(F)F)n([O-])c2ccc(Cl)cc2[n+]1=O`, the GI50 [1] was 204 nM, the TGI [1] was 574 nM and the GI50 [2] was 370 nM. For the same compound, the TGI [2] was 924 nM, the GI50 [3] was 1490 nM and the TGI [3] was 4.37 µM. The GI50 [4] was 574 nM, the TGI [4] was 1990 nM and the GI50 [5] was 359 nM. The TGI [5] was greater than 100 µM, the GI50 [6] was 487 nM and the TGI [6] was 1660 nM. The GI50 [7] was 1110 nM, the TGI [7] was 3.92 µM and the GI50 [8] was 294 nM. For the same compound, the TGI [8] was 1070 nM, the GI50 [9] was 346 nM and the TGI [9] was 6.33 µM. It also gave a GI50 [10] of 1470 nM, a TGI [10] of 2860 nM and a GI50 [11] of 538 nM. The TGI [11] was 1640 nM, the GI50 [12] was 2090 nM and the TGI [12] was 5.63 µM. The GI50 [13] was 363 nM, the TGI [13] was 1020 nM and the GI50 [14] was 109 nM. For the same compound, the TGI [14] was 730 nM, the GI50 [15] was 116 nM and the TGI [15] was 5.1 µM. It also gave a GI50 [16] of 404 nM, a GI50 [17] of 1380 nM and a TGI [17] of 3.83 µM. For the same compound, the GI50 [18] was 1430 nM, the TGI [18] was 3.24 µM and the GI50 [19] was 1460 nM. For the same compound, the TGI [19] was 2.99 µM, the GI50 [20] was 372 nM and the TGI [20] was 1720 nM. The GI50 [21] was 5.86 µM, the TGI [21] was 21.3 µM and the GI50 [22] was 374 nM. For the same compound, the TGI [22] was 1670 nM, the GI50 [23] was 376 nM and the TGI [23] was 1410 nM. The GI50 [24] was 341 nM, the TGI [24] was 1440 nM and the GI50 [25] was 820 nM. It also gave a TGI [25] of 2.55 µM, a GI50 [26] of 137 nM and a TGI [26] of 482 nM. It also gave a GI50 [27] of 799 nM, a TGI [27] of 2.1 µM and a GI50 [28] of 194 nM. For the same compound, the TGI [28] was 617 nM, the GI50 [29] was 59.5 nM and the TGI [29] was 2.84 µM. For the same compound, the GI50 [30] was 1390 nM, the TGI [30] was 12.8 µM and the GI50 [31] was 1900 nM. For the same compound, the TGI [31] was 7.66 µM, the GI50 [32] was 443 nM and the GI50 [33] was 2040 nM. The TGI [33] was 5.71 µM, the GI50 [34] was 1930 nM and the TGI [34] was 4.13 µM. It also gave a GI50 [35] of 1570 nM, a TGI [35] of 2980 nM and a GI50 [36] of 547 nM. The GI50 [37] was 1790 nM, the TGI [37] was 7.05 µM and the GI50 [38] was 101 nM. For the same compound, the TGI [38] was 216 nM, the TGI [39] was 0.838 µM and the GI50 [40] was 43 nM. For the same compound, the TGI [40] was 115 nM, the GI50 [41] was 1610 nM and the TGI [41] was 3.18 µM. It also gave a GI50 [42] of 1350 nM, a TGI [42] of 3.13 µM and a GI50 [43] of 1310 nM. For the same compound, the TGI [43] was 3.08 µM, the GI50 [44] was 1580 nM and the TGI [44] was 5.67 µM. For the same compound, the GI50 [45] was 615 nM, the TGI [45] was 2440 nM and the GI50 [46] was 1900 nM. The TGI [46] was 5.18 µM, the GI50 [47] was 33.5 nM and the TGI [47] was 539 nM. The GI50 [48] was 1760 nM, the TGI [48] was 9.78 µM and the GI50 [49] was 961 nM. It also gave a TGI [49] of 4.21 µM, a GI50 [50] of 220 nM and a TGI [50] of 1180 nM. The GI50 [51] was 819 nM, the TGI [51] was 10.3 µM and the GI50 [52] was 561 nM. It also gave a TGI [52] of 2120 nM, a GI50 [53] of 95.1 nM and a TGI [53] of 287 nM. For the same compound, the GI50 [54] was 1550 nM, the TGI [54] was 5.73 µM and the GI50 [55] was 1410 nM. It also gave a TGI [55] of 3.55 µM and a GI50 [56] of 1400 nM.
`Clc1ccc(-c2cc(-c3ccccc3)nc(NCCNc3ccnc4cc(Cl)ccc34)n2)cc1` gave a GI50 [1] of 1590 nM, a TGI [1] of 4560 nM and a GI50 [2] of 1720 nM. It also gave a TGI [2] of 3340 nM, a GI50 [3] of 1880 nM and a TGI [3] of 4.19 µM. The GI50 [4] was 1840 nM, the TGI [4] was 3370 nM and the GI50 [5] was 1670 nM. For the same compound, the TGI [5] was 3.26 µM, the GI50 [6] was 1720 nM and the TGI [6] was 3370 nM. It also gave a GI50 [7] of 1770 nM, a TGI [7] of 3.36 µM and a GI50 [9] of 1850 nM. For the same compound, the TGI [9] was 3.76 µM, the GI50 [10] was 1670 nM and the TGI [10] was 3060 nM. For the same compound, the GI50 [11] was 1740 nM, the TGI [11] was 3200 nM and the GI50 [12] was 1710 nM. It also gave a TGI [12] of 3.29 µM, a GI50 [13] of 1800 nM and a TGI [13] of 3420 nM. It also gave a GI50 [14] of 1680 nM, a TGI [14] of 3250 nM and a GI50 [15] of 1620 nM. The TGI [15] was 3.53 µM, the GI50 [16] was 1600 nM and the TGI [16] was 3.27 µM. The GI50 [17] was 1190 nM, the TGI [17] was 2.8 µM and the GI50 [18] was 1570 nM. For the same compound, the TGI [18] was 3.68 µM, the GI50 [19] was 1640 nM and the TGI [19] was 3.31 µM. For the same compound, the GI50 [57] was 2030 nM, the TGI [57] was 4.54 µM and the GI50 [20] was 1630 nM. For the same compound, the TGI [20] was 3250 nM, the GI50 [21] was 1.71 µM and the TGI [21] was 3.3 µM. For the same compound, the GI50 [23] was 1880 nM, the TGI [23] was 3570 nM and the GI50 [24] was 1820 nM. The TGI [24] was 3310 nM, the GI50 [25] was 1760 nM and the TGI [25] was 3.6 µM. For the same compound, the GI50 [26] was 1720 nM, the TGI [26] was 3240 nM and the GI50 [27] was 1910 nM. For the same compound, the TGI [27] was 4.1 µM, the GI50 [28] was 1680 nM and the TGI [28] was 3480 nM. For the same compound, the GI50 [29] was 1650 nM, the TGI [29] was 3.41 µM and the GI50 [30] was 1680 nM. For the same compound, the TGI [30] was 3.66 µM, the GI50 [31] was 1770 nM and the TGI [31] was 3.27 µM. For the same compound, the GI50 [32] was 1720 nM, the TGI [32] was 3.73 µM and the GI50 [33] was 1700 nM. The TGI [33] was 3.19 µM, the GI50 [34] was 1810 nM and the TGI [34] was 3.46 µM. For the same compound, the GI50 [35] was 1380 nM, the TGI [35] was 2860 nM and the GI50 [36] was 1950 nM. For the same compound, the TGI [36] was 3.85 µM, the GI50 [37] was 1800 nM and the TGI [37] was 3.52 µM. It also gave a GI50 [38] of 1850 nM, a TGI [38] of 3560 nM and a GI50 [39] of 2140 nM. For the same compound, the TGI [39] was 5.56 µM, the GI50 [40] was 1670 nM and the TGI [40] was 3410 nM. The GI50 [41] was 1810 nM, the TGI [41] was 3.8 µM and the GI50 [58] was 1320 nM. The TGI [58] was 2800 nM, the GI50 [42] was 1740 nM and the TGI [42] was 3.28 µM. It also gave a GI50 [43] of 2000 nM, a TGI [43] of 4.09 µM and a GI50 [44] of 1720 nM. It also gave a TGI [44] of 3.59 µM, a GI50 [45] of 1710 nM and a TGI [45] of 3450 nM. It also gave a GI50 [46] of 1580 nM, a TGI [46] of 3.08 µM and a GI50 [47] of 1890 nM. For the same compound, the TGI [47] was 4190 nM, the GI50 [48] was 1730 nM and the TGI [48] was 3.23 µM. The GI50 [49] was 1470 nM, the TGI [49] was 2.93 µM and the GI50 [50] was 1700 nM. The TGI [50] was 3480 nM, the GI50 [51] was 1660 nM and the TGI [51] was 3.4 µM. The GI50 [52] was 1600 nM, the TGI [52] was 3340 nM and the GI50 [53] was 1890 nM. For the same compound, the TGI [53] was 3700 nM, the GI50 [54] was 1790 nM and the TGI [54] was 3.83 µM. For the same compound, the GI50 [55] was 1540 nM, the TGI [55] was 3.45 µM and the GI50 [56] was 1810 nM. It also gave a TGI [56] of 3.78 µM.
